Measured values as given in PubChem BioAssay (NCI).
Where “and” joins values, the source holds several entries; their conditions need not be identical. Identical values can stand only once.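 Step 1: Grow cells in 96-well plates. Step 2: Expose to compound for 48 hours at 5 concentrations. Step 3: Interpolate endpoints linearly; if unreached, use highest concentration. Abbreviation: GI50, concentration required for 50% inhibition of growth. TGI denotes the concentration required for complete inhibition of growth.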

Columns and labels:
Test in all cases: growth of human tumour cells (NCI), 48 h
HL-60(TB) leukemia = test system: HL-60(TB) leukemia
SF-268 CNS = test system: SF-268 CNS
UACC-62 melanoma = test system: UACC-62 melanoma
NCI-H23 lung = test system: NCI-H23 lung
UACC-257 melanoma = test system: UACC-257 melanoma
RPMI-8226 leukemia = test system: RPMI-8226 leukemia
RXF 393 renal = test system: RXF 393 renal
OVCAR-5 ovarian = test system: OVCAR-5 ovarian
SK-MEL-28 melanoma = test system: SK-MEL-28 melanoma
HOP-92 NSCLC = test system: HOP-92 NSCLC

Row | Structure (SMILES) | GI50 (HL-60(TB) leukemia) | TGI (HL-60(TB) leukemia) | GI50 (SF-268 CNS) | TGI (SF-268 CNS) | GI50 (UACC-62 melanoma) | TGI (UACC-62 melanoma) | GI50 (NCI-H23 lung) | TGI (NCI-H23 lung) | GI50 (UACC-257 melanoma) | TGI (UACC-257 melanoma) | GI50 (RPMI-8226 leukemia) | TGI (RPMI-8226 leukemia) | GI50 (RXF 393 renal) | TGI (RXF 393 renal) | GI50 (OVCAR-5 ovarian) | TGI (OVCAR-5 ovarian) | GI50 (SK-MEL-28 melanoma) | TGI (SK-MEL-28 melanoma) | GI50 (HOP-92 NSCLC) | TGI (HOP-92 NSCLC)
1 | COc1ccc(/C=C/C(=O)c2ccc(Nc3ncnc4ccccc34)cc2)cc1OC | 20.7 µM | > 100 µM | 6.55 µM | > 100 µM | 10.7 µM | 27.9 µM | 4.69 µM | > 100 µM | 20.3 µM | > 100 µM | 0.365 µM | 1.66 µM | 2.2 µM | 9.96 µM | 39.6 µM | > 100 µM | 13.7 µM | 93.5 µM | 2.05 µM | 52.7 µM
2 | COc1ccc(C2CC(=O)Nc3c2c(C)nn3-c2nc3ccccc3[nH]2)cc1 (stereo not given) | 3.13 µM | 9.83 µM | 3.86 µM | 97.7 µM | 1.94 µM | 4.16 µM | 2.57 µM | 6.83 µM | 2.65 µM | 8.21 µM | 2.41 µM | 5.48 µM | 2.63 µM | 8.92 µM | 4.52 µM | > 70.1 µM | 3.92 µM | > 55.9 µM | 2.34 µM | 6.72 µM
3 | CCN=C1NN=C(c2ccccc2)c2cc(Cl)ccc2N1 |  | 62.3 µM |  | 91.1 µM |  | 31.7 µM |  | 64.6 µM |  | 34.3 µM |  | 87.1 µM |  | 58 µM |  | 60.9 µM |  | 33.7 µM |  | 47.5 µM
4 | CC(C)(C)Cn1c(N)nc2ccc(-c3[nH]c(C(C)(C)C)nc3-c3ccc(F)cc3)nc21 | 19.9 µM | 81.4 µM | 10.6 µM | 28.7 µM | 10.1 µM | 23.2 µM | 13.9 µM | 31 µM | 11.2 µM | 23.9 µM | 3.29 µM | 28.4 µM | 4.04 µM | 14.6 µM | 13.7 µM | 29.3 µM | 11.6 µM | 23.8 µM | 3.41 µM | 26.3 µM
5 | Cc1ccc(NC(=O)c2ccnc(C(F)(F)F)c2)cc1-c1cc(OCCO)nc(N2CCOCC2)c1 | 1.05 µM | 6.51 µM | 4.08 µM | 23.7 µM | 0.315 µM | 4.54 µM | 0.916 µM | 12.5 µM | 0.6 µM | 12.4 µM | 2.7 µM | > 100 µM | 1.94 µM | 10.4 µM | 1.09 µM | 28.3 µM | 0.377 µM | 11.3 µM | 0.196 µM | 4.78 µM
6 | CCN(CC)CCC(=O)Nc1cccc2c1C(=O)c1c(c(O)c3ccccc3c1O)C2=O | > 100 µM | > 100 µM | 12.7 µM | 36.5 µM | > 100 µM | > 100 µM | 21.9 µM | > 100 µM | 41.6 µM | > 100 µM | 14.2 µM | 43.1 µM | 4.16 µM | 23.8 µM | 14.6 µM | 30 µM | 3.65 µM | 14.4 µM | 0.237 µM | 8.56 µM
7 | CCCCCC(=O)N1c2ccccc2NC2=C(C(=O)CC(c3ccc(OC)c(OC)c3)C2)C1c1ccc(C(F)(F)F)cc1 (stereo not given) | > 100 µM | > 100 µM | > 100 µM | > 100 µM | 97.1 µM | > 100 µM | > 100 µM | > 100 µM | > 100 µM | > 100 µM | 5.98 µM | > 100 µM | 37.6 µM | > 100 µM | > 100 µM | > 100 µM | > 100 µM | > 100 µM | 12.2 µM | > 100 µM
8 | CCCOc1ccc(/C=C\c2cc(OC)c(OC)c(OC)c2)cc1 |  | > 100 µM |  | > 100 µM |  | > 100 µM |  |  |  | > 100 µM |  | > 100 µM |  | > 100 µM |  | 60.9 µM |  | > 100 µM |  | > 100 µM
9 | O=C(CNC(=O)c1cccc2ccccc12)Nc1ccccc1Oc1cccc(O)c1 | 1.31 µM | 10.6 µM | 20.9 µM | > 25 µM | 1.62 µM | > 25 µM | 16 µM | > 25 µM | > 25 µM | > 25 µM | 8.04 µM | > 25 µM | 4.12 µM | 15.4 µM | > 25 µM | > 25 µM | > 25 µM | > 25 µM | > 25 µM | > 25 µM
10 | COc1ccc(C2=NNC(c3ccc(-c4ccc(OC)cc4[N+](=O)[O-])o3)C2)cc1 (stereo not given) | 71.7 µM | > 100 µM | 20.3 µM | 53.2 µM | 0.691 µM | 19.4 µM | 33 µM | > 100 µM | 38.4 µM | > 100 µM | 36.8 µM | > 100 µM | 20.3 µM | 54.1 µM | > 100 µM | > 100 µM | > 100 µM | > 100 µM | 15.1 µM | 81 µM
11 | C=C1C(=O)O[C@H]2[C@H]1CC/C(COC(=O)NCCc1ccc(OC)cc1)=C\CC[C@@]1(C)O[C@@H]21 | 2.34 µM | 5.72 µM | 10.6 µM | 23.3 µM | 1.25 µM | 3.05 µM | 4.34 µM | 18.6 µM | 2.49 µM | 6.85 µM | 2.85 µM | 7.59 µM | 1.55 µM | 3.11 µM | 2.65 µM | 8.27 µM | 1.99 µM | 4.39 µM | 1.99 µM | 6.19 µM
12 | O=S(=O)(O)C(F)(F)C(F)(F)C(F)(F)C(F)(F)F |  | > 100 µM |  | > 100 µM |  | > 100 µM |  | > 100 µM |  | > 100 µM |  | > 100 µM |  | > 100 µM |  | > 100 µM |  |  |  | > 100 µM
13 | COc1cc(N2CCC(N(C)C)CC2)ccc1Nc1ncc(Cl)c(Nc2ccccc2P(C)(C)=O)n1 | 1.25 µM and 0.168 µM | 11.6 µM and > 5.33 µM | 1.17 µM and 0.386 µM | 5.04 µM and 2.76 µM | 3.07 µM and 0.775 µM | 20.2 µM and > 5.16 µM | 1.33 µM and 0.338 µM | 17.1 µM and > 4.62 µM | 4.01 µM and 0.61 µM | 30 µM and > 8.47 µM | 3.85 µM and 2.05 µM | 21.7 µM and > 7.1 µM | 0.442 µM and 0.202 µM | 1.88 µM and 0.874 µM | 0.351 µM and 0.198 µM | 8.97 µM and > 10 µM | 6.44 µM and 1.31 µM | 37 µM and > 7.34 µM | 0.0882 µM | 0.918 µM
14 | Clc1ccc(C2=Nc3ccccc3SC(c3ccc(Cl)c(Cl)c3)C2)c(Cl)c1 (stereo not given) |  | 24.8 µM |  | 19.9 µM |  | 29.4 µM |  | 34.2 µM |  | 41.1 µM |  | 6.01 µM |  | 30.5 µM |  | 32.1 µM |  | 30.3 µM |  | 30.1 µM
15 | CC1(C)OC2C(CO)OC(n3ccc(=O)[nH]c3=O)C2O1 (stereo not given) |  | > 100 µM |  | > 100 µM |  | > 100 µM |  | > 100 µM |  | > 100 µM |  | > 100 µM |  | > 100 µM |  | > 100 µM |  | > 100 µM |  | > 100 µM
16 | O=C(Nc1ccccc1Cl)c1cnc2ccc(C3CCNCC3)cn12 | > 67.9 µM | > 100 µM | 9.04 µM | > 100 µM | 14.2 µM | 56.7 µM | 74.5 µM | > 100 µM | 16.2 µM | 37.1 µM | > 69 µM | > 100 µM | 0.802 µM | 4.84 µM | 1.9 µM | > 100 µM | 18.4 µM | 43.3 µM | 0.703 µM | 7.28 µM
17 | Nc1nc(-n2cccn2)nc(-n2cccn2)c1Br | > 100 µM | > 100 µM | > 100 µM | > 100 µM | > 100 µM | > 100 µM | > 100 µM | > 100 µM | > 100 µM | > 100 µM | > 100 µM | > 100 µM | > 100 µM | > 100 µM | > 100 µM | > 100 µM | > 100 µM | > 100 µM | > 100 µM | > 100 µM
18 | COc1ccc(NC2=C(Sc3nc(C)cc(C)n3)C(=O)N(Cc3ccccc3)C2=O)cc1Cl | 140 µM | > 160 µM | > 160 µM | > 160 µM | 22.5 µM | > 160 µM | > 160 µM | > 160 µM | > 160 µM | > 160 µM | 8.79 µM | > 160 µM | 29 µM | 136 µM | > 160 µM | > 160 µM | > 160 µM | > 160 µM | 29.4 µM | > 160 µM
19 | CC[C@@]1(O)C(=O)NCc2c1cc1n(c2=O)Cc2cc3cc4c(cc3nc2-1)OCO4 | 0.0462 µM | 0.502 µM | 0.236 µM | > 30.7 µM | 0.243 µM | 29.4 µM | 0.798 µM | > 13.2 µM | 14.1 µM | > 100 µM | 0.293 µM | 9.02 µM | 0.803 µM | > 100 µM | 9.39 µM | > 88.2 µM | 45.1 µM | > 100 µM | 1.22 µM | > 26.9 µM
20 | CC1(C)CCSC(/C=C/c2ccccc2)=N1 |  | > 100 µM |  | 80.3 µM |  |  |  | 33.9 µM |  | 27 µM |  | 62.6 µM |  | 47.7 µM |  | 36.4 µM |  | 43 µM |  | 35.9 µM
21 | c1ccc(-c2nc(Nc3ccc(-c4nc5ccccc5[nH]4)cc3)nc(N3CCOCC3)n2)cc1 | 0.031 µM | 0.601 µM | 1.64 µM | 3.24 µM | 1.66 µM | 3.48 µM | 2.07 µM | 4.78 µM |  |  | 1.11 µM | 4.23 µM | 0.501 µM | 2.12 µM | 2.16 µM | 4.02 µM | 1.56 µM | 3.09 µM | 1.38 µM | 3.05 µM
